{"source": "patent EP4631504A1", "about": "“COMPOSITION FOR PREVENTION OR TREATMENT OF FABRY'S DISEASE” (Korea Advanced Institute of Science and Technology, priority 2022, dated 2024)", "key": {"FD-VECs [1]": {"tested_on": "FD-VECs", "assay": "Tube-like structure formation assay of FD-VECs", "format": "cell-based, human", "conditions": "for tube formation ability: 0.5, 1, and 5 µM, versus DMSO control", "procedure": "FD-iPSC lines that were generated from fibroblasts of three FD patients with a GLA variant were used. A wild-type (WT) iPSC line derived from foreskin fibroblasts and a FD1 isogenic iPSC line were used as controls. Human iPSCs (hiPSCs) were maintained in mTeSR1 medium ([…] Technologies, Vancouver, Canada) on culture plates precoated with Corning Matrigel® hESC-Qualified Matrix. The cells were maintained at 37°C in a 5% CO2 incubator. After 7 days of culture, hiPSC colonies were split at a 1:50 ratio using accutase solution (eBioscience, San Diego, CA, USA) and incubated under the same culture conditions for expansion.\nHuman iPSCs were differentiated into VECs as described previously, with further optimization. Briefly, hiPSCs were transferred to dishes coated with Matrigel® (BD Biosciences, Franklin Lakes, NJ, USA) and cultured for 2 days in mTESR1 medium ([…] Technologies) at 37°C and 5% CO2. Subsequently, the cells were cultured for a further 2 days in VEC medium (RPMI (HyClone, Logan, MI, USA), 1% B27 (Invitrogen, Carlsbad, CA, USA), and penicillin/streptomycin (Invitrogen)) supplemented with 50 ng/mL Activin A (PeproTech, Rocky Hill, NJ, USA) and 20 ng/mL BMP4 (PeproTech), and 3 µM CHIR990921 (Sigma, St. Louis, MO) at 37°C and 5% CO2. Next, the cells were cultured for 3 days in VEC medium containing 50 ng/mL VEGF-A (PeproTech) and 50 ng/mL bFGF, at 37°C and 5% CO2. To differentiate the vascular progenitors into VECs, CD31^+ cells were sorted from the differentiated cells by MACS using CD31^+ Dynabeads (Thermo Fisher Scientific, Waltham, MA, USA). The CD31^+ cells were transferred to gelatin-coated plates and incubated for 3 days in EGM-2 medium (Lonza, Basel, Switzerland) supplemented with 100 ng/mL VEGF-A and 50 ng/mL bFGF, at 37°C and 5% CO2. The culture medium was changed daily. Finally, the vascular progenitors were cultured in EGM-2 medium without growth factors for 4 days with daily medium change.\nTo screen for clinical compounds that could rescue FD-VEC dysfunction, VECs were seeded onto gelatin-coated 96-well plates (SPL Life Sciences, Pocheon, Korea) at a density of 3 × 10^3 cells/cm^2 and maintained in EGM-2 medium without growth factors for 24 hours. […] Subsequently, it was examined whether FD-VECs treated with each selected compound could form tube-like structures on Matrigel®-coated plates. The tube-like structure forming assay was repeated at least three times using different concentrations of each selected compound (0.5, 1, and 5 µM).\nFD-VECs were dissociated after treatment with Accutase (eBioscience) at 37°C for 5 min. Dissociated cells (1 × 10^4) were transferred to Matrigel® matrix (BD Biosciences) in EGM-2 medium supplemented with 100 ng/mL VEGF-A, and then incubated at 37°C and 5% CO2 for 24 hours. Images of the vascular tube-like structures were taken using an inverted microscope (Olympus, Tokyo, Japan). Total tube lengths were measured using ImageJ software, which was freely provided by the […], and its Angiogenesis Analyzer plugin (Carpentier, 2012)."}, "[2]": {"tested_on": "p-SMAD2, SMAD2, TSP1, KDR, eNOS", "assay": "Western blot analysis of p-SMAD2, TSP1, KDR and eNOS in FD-VECs", "format": "cell-based, human", "conditions": "compared to non-treated FD-VECs"}, "EndMT of FD-VECs": {"tested_on": "EndMT of FD-VECs", "assay": "EndMT-associated factors in FD-VECs (Western blot, immunostaining)", "format": "cell-based, human", "source_text": "Hyperactive SMAD2 signaling induces EndMT in VECs, thereby reducing angiogenic functionality. […] Before drug treatment, the present inventors performed bulk RNA sequencing of FD-VECs and FD(c)-VECs to examine the mechanism underlying the defective vasculopathy of FD-VECs."}, "FD-VECs [3]": {"tested_on": "FD-VECs", "assay": "ROS fluorescence intensity in FD-VECs", "format": "cell-based, human"}, "FD-VECs [4]": {"tested_on": "FD-VECs", "assay": "Extracellular flux analysis of oxygen consumption rate (OCR)", "format": "cell-based, human"}, "[5]": {"tested_on": "FD mice (Gla^-/-/TSP1^Tg)", "assay": "Echocardiography of FD mice after oral administration", "format": "in vivo", "conditions": "10 or 30 mg/kg/day for 6 months", "source_text": "Therefore, the present inventors hypothesized that Gla^-/- mice expressing human TSP1 (Gla^-/-/TSP1^Tg; hereinafter referred to as FD mice) might be an effective animal model for studying FD-related vasculopathy. […] LVH is known to occur in up to half of males and one-third of females in FD patients (Kampmann C, Linhart A, Baehner F, Palecek T, Wiethoff CM, Miebach E, Whybra C, Gal A, Bultas J, Beck M (2008) Onset and progression of the Anderson-Fabry disease related cardiomyopathy. International Journal of Cardiology 130: 367-73). Thus, the present inventors investigated the cardiac functionality in each mouse group via echocardiography.\nTo this end, FD-mice (Gla^-/-/TSP1^Tg) were produced by crossing transgenic mice expressing human TSP1 with Gla^-/- mice. The produced mice were then orally administered lomerizine (10 or 30 mg/kg/day) for 6 months (FIG. 18A)."}, "[6]": {"tested_on": "FD mice (Gla^-/-/TSP1^Tg)", "assay": "Sweat secretion analysis in FD mice", "format": "in vivo", "conditions": "oral, 10 or 30 mg/kg/day for 6 months"}, "[7]": {"tested_on": "FD mice (Gla^-/-/TSP1^Tg)", "assay": "Heat tolerance test (paw withdrawal latency) in FD mice", "format": "in vivo", "conditions": "oral, 10 or 30 mg/kg/day for 6 months"}, "[8]": {"tested_on": "FD mice (Gla^-/-/TSP1^Tg)", "assay": "Immunohistochemistry and Western blot of renal tissues of FD mice", "format": "in vivo", "conditions": "oral administration"}, "[9]": {"tested_on": "Fabry disease vascular endothelial cells", "assay": "Tube formation experiment with ROCK inhibitors", "format": "cell-based, human", "conditions": "5 µM", "procedure": "[Table 1] ROCK inhibitors used in the first experiment\nSecond experiment: To confirm whether decreased tube formation in vascular endothelial cells derived from Fabry disease-induced pluripotent stem cells was rescued by treatment with 7 types of ROCK inhibitors (netarsudil, ripasudil, sovesudil, AT13148, AR13503, VX-210, and […]), a tube formation experiment was conducted (Table 2). [Table 2] Types of ROCK inhibitors used in the second experiment\nMatrigel was applied to a 96-well plate which was then stored in a 5% CO2 incubator a 37°C for one day. The next day, each ROCK inhibitor was added to each well at various concentrations (5 µM, 1 µM, 0.5 µM, 0.1 µM, 0.05 µM, and 0.01 µM) together with […] VEGF in EGM-2 media.\n10,000 vascular endothelial cells per well were applied onto the solidified Matrigel, and after one day, each well was photographed under a microscope. Then, the total tube length was analyzed using Image J to compare the increase and decrease in tube formation."}, "Rock1": {"target": "Rock1 (Homo sapiens, UniProt Q13464)", "sequence (Q13464 whole entry, species assumed)": "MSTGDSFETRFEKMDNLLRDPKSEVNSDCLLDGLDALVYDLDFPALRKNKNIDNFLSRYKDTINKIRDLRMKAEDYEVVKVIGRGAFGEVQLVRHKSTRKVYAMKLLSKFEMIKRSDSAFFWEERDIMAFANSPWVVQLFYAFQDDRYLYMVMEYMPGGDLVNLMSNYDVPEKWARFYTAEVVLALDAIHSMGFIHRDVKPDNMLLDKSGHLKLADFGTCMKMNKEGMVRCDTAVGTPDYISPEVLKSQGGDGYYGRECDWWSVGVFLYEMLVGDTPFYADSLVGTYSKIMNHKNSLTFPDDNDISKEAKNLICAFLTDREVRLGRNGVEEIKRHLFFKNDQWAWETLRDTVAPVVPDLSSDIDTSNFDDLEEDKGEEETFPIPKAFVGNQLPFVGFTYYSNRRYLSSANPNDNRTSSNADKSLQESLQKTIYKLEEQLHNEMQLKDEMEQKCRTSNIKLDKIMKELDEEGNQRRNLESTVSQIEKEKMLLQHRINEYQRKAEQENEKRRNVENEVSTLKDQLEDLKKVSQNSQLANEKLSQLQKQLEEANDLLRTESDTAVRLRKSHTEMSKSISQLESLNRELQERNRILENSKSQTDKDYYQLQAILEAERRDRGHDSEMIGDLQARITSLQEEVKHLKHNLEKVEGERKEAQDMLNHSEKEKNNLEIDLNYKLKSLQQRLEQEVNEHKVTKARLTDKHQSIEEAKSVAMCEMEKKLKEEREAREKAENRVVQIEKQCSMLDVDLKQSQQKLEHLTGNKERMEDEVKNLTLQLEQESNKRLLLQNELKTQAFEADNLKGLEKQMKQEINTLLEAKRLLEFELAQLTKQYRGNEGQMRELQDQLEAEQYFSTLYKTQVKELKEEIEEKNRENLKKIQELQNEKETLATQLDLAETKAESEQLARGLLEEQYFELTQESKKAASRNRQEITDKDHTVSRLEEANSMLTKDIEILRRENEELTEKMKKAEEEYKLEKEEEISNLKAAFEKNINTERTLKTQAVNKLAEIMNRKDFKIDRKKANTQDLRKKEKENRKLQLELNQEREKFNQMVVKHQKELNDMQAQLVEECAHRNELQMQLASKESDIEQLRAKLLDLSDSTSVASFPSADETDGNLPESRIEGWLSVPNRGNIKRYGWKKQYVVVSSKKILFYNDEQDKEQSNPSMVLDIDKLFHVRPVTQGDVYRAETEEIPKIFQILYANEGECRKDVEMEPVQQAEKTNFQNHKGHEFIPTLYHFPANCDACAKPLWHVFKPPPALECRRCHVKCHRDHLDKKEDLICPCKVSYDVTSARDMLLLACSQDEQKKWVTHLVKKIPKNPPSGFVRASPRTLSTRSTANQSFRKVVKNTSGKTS", "conditions": "cited from earlier work"}, "Rock2": {"target": "Rock2 (Homo sapiens, UniProt O75116)", "sequence (O75116 whole entry, species assumed)": "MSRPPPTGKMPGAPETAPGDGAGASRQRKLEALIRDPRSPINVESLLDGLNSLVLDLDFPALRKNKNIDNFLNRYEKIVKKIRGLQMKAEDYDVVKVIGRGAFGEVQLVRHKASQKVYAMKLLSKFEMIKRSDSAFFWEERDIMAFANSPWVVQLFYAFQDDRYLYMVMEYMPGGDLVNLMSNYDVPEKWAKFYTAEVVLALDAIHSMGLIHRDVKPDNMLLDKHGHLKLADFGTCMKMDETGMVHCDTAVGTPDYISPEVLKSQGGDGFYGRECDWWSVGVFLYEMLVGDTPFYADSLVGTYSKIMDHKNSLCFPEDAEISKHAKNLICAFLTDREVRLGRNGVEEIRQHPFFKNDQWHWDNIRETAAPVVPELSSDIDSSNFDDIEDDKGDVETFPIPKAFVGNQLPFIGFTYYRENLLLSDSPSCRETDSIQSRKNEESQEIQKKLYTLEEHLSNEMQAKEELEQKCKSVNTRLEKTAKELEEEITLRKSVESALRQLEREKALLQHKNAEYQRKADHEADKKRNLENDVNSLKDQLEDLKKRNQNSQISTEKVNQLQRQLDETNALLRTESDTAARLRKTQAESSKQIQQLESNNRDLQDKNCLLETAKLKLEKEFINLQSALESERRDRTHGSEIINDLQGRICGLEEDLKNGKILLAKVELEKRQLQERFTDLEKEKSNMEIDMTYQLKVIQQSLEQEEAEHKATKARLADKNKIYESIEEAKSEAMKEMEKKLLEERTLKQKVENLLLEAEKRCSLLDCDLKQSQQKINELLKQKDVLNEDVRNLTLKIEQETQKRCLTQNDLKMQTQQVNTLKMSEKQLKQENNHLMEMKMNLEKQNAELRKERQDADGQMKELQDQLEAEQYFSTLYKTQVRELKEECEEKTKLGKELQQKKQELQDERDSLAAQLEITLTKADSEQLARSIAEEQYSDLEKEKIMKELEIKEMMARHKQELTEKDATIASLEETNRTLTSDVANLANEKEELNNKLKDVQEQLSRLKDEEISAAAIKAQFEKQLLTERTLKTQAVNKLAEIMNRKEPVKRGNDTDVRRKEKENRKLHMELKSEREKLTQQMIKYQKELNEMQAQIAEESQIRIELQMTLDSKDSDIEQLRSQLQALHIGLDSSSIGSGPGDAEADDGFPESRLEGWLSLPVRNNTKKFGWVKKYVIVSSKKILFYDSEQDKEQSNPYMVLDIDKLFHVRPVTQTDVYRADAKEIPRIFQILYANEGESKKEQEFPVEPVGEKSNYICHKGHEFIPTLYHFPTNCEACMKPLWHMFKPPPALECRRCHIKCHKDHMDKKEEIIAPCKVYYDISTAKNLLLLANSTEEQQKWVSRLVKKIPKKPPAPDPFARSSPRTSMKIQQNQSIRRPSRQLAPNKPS", "conditions": "cited from earlier work"}}, "note": "Structures can show the parent of a compound that is named as a salt."}
{"compound": "COc1ccc(CN2CCN(C(c3ccc(F)cc3)c3ccc(F)cc3)CC2)c(OC)c1OC", "note": "[lomerizine]", "values": [{"measurement": "tube formation ability", "setting": "FD-VECs [1]", "value": "relatively higher tube formation ability"}, {"measurement": "optimal concentration", "setting": "FD-VECs [1]; based on tube formation of FD-VECs", "value": 1, "unit": "µM"}, {"measurement": "tube formation ability of VECs derived from FD-iPSC lines with distinct GLA mutations", "setting": "FD-VECs [1]; fasudil at 5 µM", "value": "enhanced"}, {"measurement": "total tube length of FD-VECs", "setting": "FD-VECs [1]; tube formation assay, versus untreated FD-VECs", "value": "significantly increased"}, {"measurement": "levels of KDR and eNOS", "setting": "[2]", "value": "increased"}, {"measurement": "levels of p-SMAD2 and TSP1", "setting": "[2]", "value": "reduced"}, {"measurement": "levels of mesenchymal-related markers (COL1A1, ACTA2, SNAI1, and TWIST)", "setting": "EndMT of FD-VECs; Western blot", "value": "reduced"}, {"measurement": "protein level of CD31", "setting": "EndMT of FD-VECs; Western blot", "value": "increased"}, {"measurement": "fluorescence intensities of EndMT-related factors (ACTA2, SNAI1, COL1A1)", "setting": "EndMT of FD-VECs; immunostaining", "value": "reduced"}, {"measurement": "level of ROS", "setting": "FD-VECs [3]", "value": "reduced the excess ROS produced in FD-VECs to the same level as that in WT- and FD(c)-VECs"}, {"measurement": "maximal respiration", "setting": "FD-VECs [4]", "value": "slight decrease"}, {"measurement": "LV mass/BW", "setting": "[5]", "value": "reduced"}, {"measurement": "cardiac ejection fraction, fractional shortening, and cardiac output", "setting": "[5]", "value": "significant improvements"}, {"measurement": "anhidrosis (number of sweat spots)", "setting": "[6]", "value": "rescued this phenotype"}, {"measurement": "heat insensitivity (paw withdrawal latency)", "setting": "[7]", "value": "rescued this phenotype"}, {"measurement": "protein levels of fibrotic and inflammatory markers in renal tissues", "setting": "[8]; Western blot", "value": "reduced"}, {"measurement": "CD31+ACTA2+ cells in renal tissues", "setting": "[8]; immunohistochemistry", "value": "reduced this increase"}, {"measurement": "expression levels of F4/80 and LCN2 in renal tissues", "setting": "[8]; immunohistochemistry", "value": "reduced"}, {"measurement": "expression of COL1A1 in renal tissues", "setting": "[8]; immunohistochemistry", "value": "downregulated"}]}
{"compound": "NC[C@@](O)(c1ccc(Cl)cc1)c1ccc(-c2cn[nH]c2)cc1", "note": "[AT-13148]", "values": [{"measurement": "tube formation ability of Fabry disease vascular endothelial cells", "setting": "[9]", "value": "increased the tube formation ability"}, {"measurement": "IC50", "setting": "Rock1", "value": 6, "unit": "nM"}, {"measurement": "IC50", "setting": "Rock2", "value": 4, "unit": "nM"}]}
{"compound": "CC1=C(C(=O)Nc2cc3cn[nH]c3cc2F)C(c2ccc(C(F)(F)F)cc2)CC(=O)N1", "note": "(stereo not shown) [GSK429286A]", "values": [{"measurement": "tube formation ability of Fabry disease vascular endothelial cells", "setting": "[9]", "value": "effective in improving the impaired tube formation ability"}]}
{"compound": "CCCOC(=O)c1cccc(-c2cc(C(=O)Nc3ccncc3F)ccc2CN)c1", "note": "[AMA-0076, Sovesudil]", "values": [{"measurement": "tube formation ability of Fabry disease vascular endothelial cells", "setting": "[9]", "value": "increased the tube formation ability"}, {"measurement": "IC50", "setting": "Rock1", "value": 3.7, "unit": "nM"}, {"measurement": "IC50", "setting": "Rock2", "value": 23, "unit": "nM"}]}
{"compound": "Netarsudil mesylate", "values": [{"measurement": "tube formation ability of Fabry disease vascular endothelial cells", "setting": "[9]", "value": "increased the tube formation ability"}]}
{"compound": "O=C(Nc1ccncc1)c1cc([N+](=O)[O-])ccc1Cl", "note": "[T0070907]", "values": [{"measurement": "tube formation ability", "setting": "FD-VECs [1]", "value": "relatively higher tube formation ability"}]}
{"compound": "C[C@@H](N)[C@H]1CC[C@H](C(=O)Nc2ccncc2)CC1", "note": "[Y27632]", "values": [{"measurement": "tube formation ability of Fabry disease vascular endothelial cells", "setting": "[9]", "value": "effective in improving the impaired tube formation ability"}]}
{"compound": "NC(=O)c1ccc(-c2nc(-c3ccc4c(c3)OCCO4)c(-c3ccccn3)[nH]2)cc1", "note": "[D-4476]", "values": [{"measurement": "tube formation ability", "setting": "FD-VECs [1]", "value": "relatively higher tube formation ability"}]}
{"compound": "C[C@@H](N)c1ccc(C(=O)Nc2ccnc3[nH]ccc23)cc1", "note": "[Y39983]", "values": [{"measurement": "tube formation ability of Fabry disease vascular endothelial cells", "setting": "[9]", "value": "effective in improving the impaired tube formation ability"}]}
{"compound": "C[C@H]1CNCCCN1S(=O)(=O)c1cccc2cncc(F)c12", "note": "[Ripasudil hydrochloride hydrate]", "values": [{"measurement": "tube formation ability of Fabry disease vascular endothelial cells", "setting": "[9]", "value": "increased the tube formation ability"}]}
{"compound": "NC[C@@H](C(=O)Nc1ccc2cnccc2c1)c1ccc(CO)cc1", "note": "[AR-13503]", "values": [{"measurement": "tube formation ability of Fabry disease vascular endothelial cells", "setting": "[9]", "value": "increased the tube formation ability"}, {"measurement": "IC50", "setting": "Rock2", "value": 4.2, "unit": "nM"}]}
{"compound": "Cc1c(Cl)cccc1Nc1ccccc1C(=O)O", "note": "[tolfenamic acid]", "values": [{"measurement": "tube formation ability", "setting": "FD-VECs [1]", "value": "relatively higher tube formation ability"}]}
{"compound": "CCOC(CN1CCN(CC(C)C(=O)c2ccccc2)CC1)c1ccccc1", "note": "(stereo not shown) [eprazinone]", "values": [{"measurement": "tube formation ability", "setting": "FD-VECs [1]", "value": "relatively higher tube formation ability"}]}
{"compound": "NC(=O)c1ccc(-c2nc(-c3ccc4c(c3)OCO4)c(-c3ccccn3)[nH]2)cc1", "note": "[SB431542]", "values": [{"measurement": "tube formation ability of Fabry disease vascular endothelial cells", "setting": "[9]", "value": "increased tube formation ability"}]}
